Assay results published in patent US7524811B2, “Anti-angiogenic peptides from the N-terminus of endostatin” (Children's Medical Center Corporation, priority 2003, dated 2009).
Values joined by “and” are separate entries in the source; they are usually repeats but may differ in a detail not shown here. Equal values may be shown once. “Also recorded” adds a separate entry of the source. Blank lines part the entries; values can stand above or below the molecule they belong to. No end group written: not given here.

Columns and labels:
LLC tumors [1] = experiment: Lewis lung carcinoma (LLC) tumor model, systemic s.c. treatment; format: in vivo, C57B1/6J mice; conditions: peptide s.c. twice a day, 2.8 mg/kg/d, vs PBS
Procedure: The murine LLC tumor model (O'Reilly et al. (1994) Cell, 79: 315-328) was used to further characterize these peptides because this tumor grows more rapidly than BxPC-3 cells, allowing for shorter treatment periods. Murine analogs of the endostatin peptides were synthesized. The only difference between the human and murine peptides was that murine P1 peptide contained 27 amino acids instead of 25 amino acids for human P1.
Control mice were treated with PBS. In these experiments, LLC cells were implanted into the s.c. dorsa of C57B1/6J mice, and systemically treated. Peptides (mP1, mP2, mP5, and mP6) were injected (s.c.) twice a day at a dose of 2.8 mg/kg/d, whereas endostatin and PBS were administered once a day at a dose of 20 mg/kg/d.
(§1) BxPC-3 and LLC cells were grown in cell culture as described above. […] Mice were shaved and the dorsal skin was cleaned with ethanol before tumor cell injection. A suspension of 5×10^6 tumor cells in 0.1 ml RPMI-1640 (for BxPC-3) or DMEM (for LLC) was injected subcutaneously (s.c.) into the dorsa of mice at the proximal midline. BxPC-3 cells were implanted in SCID mice and LLC in C57B1/6J mice.
Animals with Lewis Lung carcinoma (600-800 mm^3 tumors) were euthanized, and the skin overlying the tumor was cleaned with Betadine and ethanol. Tumor tissue was excised under aseptic conditions. A suspension of tumor cells in 0.9% normal saline was made by passage of viable tumor tissue through a sieve and a series of sequentially smaller hypodermic needles of diameter 22- to 30-gauge. The final concentration was adjusted to 1×10^7 cells/ml, and the suspension was placed on ice. The injection of tumor cells was performed as described above.
The mice were weighed and tumors were measured every 3-5 days in two diameters with a dial-caliper. Volumes were determined using the formula a^2×b×0.52 (where a is the shortest and b is the longest diameter). Data is represented as volume of treated tumor over control (T/C). At the completion of each experiment, the mice were euthanized with CO2 asphyxiation. Tumors were fixed in 10% buffered Formalin (Fisher Scientific, Fair Lawn, N.J.) and paraffin-embedded.
For treatment of tumor-bearing mice, tumor volumes were allowed to grow to approximately 100 mm^3, and mice were randomized. Treatment was performed by single bolus s.c. injections. Peptides were administered twice a day (every 12 hrs). Doses indicated for peptides were corrected for the purity of peptides (approximately 70%). For example, mice injected with 4 mg/kg/d peptide, were actually injected with 2.8 mg/kg/d after correction. The unpaired Student t-test was used for statistical analysis.

[2] = test system: human pancreatic tumor cells BxPC-3; experiment: BxPC-3 tumor model, systemic s.c. treatment; format: in vivo, SCID mice; conditions: peptide s.c. twice a day, 7 mg/kg/d; for inhibition of BxPC-3 tumor: final measurement at 28 days, n=3, vs PBS
Procedure: These peptides were initially tested for anti-tumor activity employing the human pancreatic tumor cells BxPC-3 cells, which were implanted in the s.c. dorsa of SCID mice. For systemic treatment, human endostatin peptides, P1-P8, were administered subcutaneously (s.c.) twice a day at 7 mg/kg/d due to the high clearance rate from the mouse circulation. Full-length Fc-Endostatin, hFcES was administered subcutaneously only once per day at a dose of 20 mg/kg/d. PBS was used as a control.
Human BxPC-3 pancreatic adenocarcinoma and Lewis lung carcinoma (LLC) cells were grown and maintained as described earlier (Kisker et al. (2001) Cancer Res, 61:7669-7674; O'Reilly et al. (1994) Cell, 79: 315-328). For BxPC-3 tumor cell injection, cells were grown in 900-cm2 roller bottles. Human microvascular endothelial cells (HMVEC-d; Clonetics, Walkersville, Md.) were cultured in microvascular endothelial cell growth medium (EGM-2 MV; Clonetics) and maintained at 5% CO2 in a 37° C. humidified incubator. Recombinant human endostatin was a generous gift from EntreMed Corporation (Rockville, Md.) and recombinant human and murine FcEndostatin were prepared as described earlier (Bergers et al. (1999) Science, 284: 808-812). Human and murine endostatin peptides were synthesized by SynPep Corporation (Dublin, Calif.). Peptides were resuspended in PBS or 50 mM Tris, 150 mM NaCl, pH 7.5. PECAM, purified rat anti-mouse CD31, was obtained from BD Pharmingen (San Diego, Calif.) and human recombinant VEGF was obtained from the NIH (Bethesda, Md.).
as §1, with “BxPC-3 cells were implanted in SCID mice and LLC in C57B1/6J mice.” left out
The mice were weighed and tumors were measured every 3-5 days in two diameters with a dial-caliper. Volumes were determined using the formula a^2×b×0.52 (where a is the shortest and b is the longest diameter). […]

[3] = test system: human microvascular endothelial cells (HMVECs); experiment: VEGF-induced endothelial cell migration, modified Boyden chamber; format: cell-based; conditions: VEGF 5 ng/ml; for concentration at which VEGF-induced EC migration was inhibited: 25 ng/ml peptide equimolar to 200 ng/ml endostatin
Procedure: Endostatin peptides were tested for anti-endothelial cell migration activity. Inhibition of VEGF-induced migration of human microvascular endothelial cells (HMVECs) was determined using several doses of endostatin peptides (FIG. 5). Human peptides were used because the cells were of human origin and the migration response of the HMVECs was assayed using a modified Boyden chamber. VEGF (5 ng/ml) was used a chemotactic agent and cells were challenged with human endostatin (Entremed; EM-ES), human Fc-Endostatin (nFcES), human P1 (hP1), human P2 (hP2), human P6 (hP6), and human P1-H1/3A (hP1-H1/3A). Total migration per membrane was quantified from the capture images using Scion Image Software (National Institutes of Health) and the unpaired Student T test was used for statistical analysis.
The motility response of HMVEC-d cells was assayed using a modified Boyden chamber. Cells were plated in T75-cm2 flasks at 0.5×10^6 cells per flask and allowed to grow for 48 h (˜70% confluent) prior to the migration assay. To facilitate cell adhesion, the upper membrane of a transwell ([…]; Costar) was coated with fibronectin ([…]; Becton Dickinson, Bedford, Mass.) for 1 h at 37° C. Coated membranes were rinsed with PBS and allowed to air dry immediately before use. Cells were detached by trypsinization, treated with trypsinization neutralization solution (Clonetics), and resuspended at a final concentration of 1×10^6 cells/ml in serum-free endothelial basal medium (EBM; Clonetics) containing 0.1% BSA. Cells (200,000 in 0.2 ml) were then treated with 0.2 ml of EBM/BSA containing endostatin or peptides at the indicated concentrations. Cells were incubated for 20 min. at 37° C. with occasional shaking. Cells (50,000 in 100 μl) were added to the upper chamber of the transwell. EBM or EBM supplemented with VEGF (5 ng/ml) was added to the lower chamber and cells were allowed to migrate toward the bottom chamber for 4 h in a humidified incubator containing 5% CO2. Transwell filters were rinsed once with PBS and fixed and stained using a Diff-Quik staining kit (Baxter) following the manufacturer's protocol. Non-migrated cells were removed from the upper chamber with a cotton swab. Stained filters were cut out of the chamber and mounted onto slides using Permount (Fisher). The number of migrated cells was measured using microscopy (three fields from each membrane were captured using a 40x objective), and images were captured with a CCD camera using SPOT software. Total migration per membrane was quantified from the captured images using Scion Image software (National Institutes of Health). All experiments were run in triplicate. The unpaired Student t-test was used for statistical analysis.

LLC tumors [4] = experiment: Lewis lung carcinoma (LLC) tumor model, systemic s.c. treatment; format: in vivo, C57B1/6J mice; conditions: peptide at 14 mg/kg/d
[5] = test system: vessel density (CD31) of LLC tumors; experiment: Vessel density (CD31 staining) of LLC tumor sections; format: in vivo, C57B1/6J mice; conditions: peptide 2.8 mg/kg/d s.c. twice a day
Procedure: To determine the effect on angiogenesis after mP1 treatment, LLC tumors treated with mP1, mP2, and endostatin at equimolar concentration were analyzed for vessel density (CD31). […] In each case, peptides were administered twice a day s.c. and LLC tumor sections from day 13 were formalin-fixed paraffin-embedded and then stained with CD31 (PECAM). FIG. 2C show the determination of vessel density and the Y axis is expressed as % CD31/high power field (hpf).
To determine if Zn binding is also important for the anti-tumor property of endostatin, mP1 and mP1-H1/3A were tested using the LLC tumor model. Peptides were administered twice a day (s.c.) at a dose of 2.8 mg/kg/d. Peptide mPl inhibited LLC by 42% (p =0.031), whereas mPl-H1/3A had no effect (FIG. 3C). To determine if there was a difference in angiogenesis, vessel density (CD31) of LLC tumors was analyzed after mP1 and mP1-H1/3A treatment. […] The unpaired Student t test was used for statistical analysis.
Tumors were fixed in 10% buffered Formalin overnight at 4° C. The next day, tumors were washed three times in PBS and paraffin-embedded. Sections (5 μm) were permeabilized with 40 μg/ml proteinase K (Roche Diagnostics Corp.) in 0.2 M Tris-HCl buffer (pH 7.6) for 25 minutes at 37° C. and washed with PBS. PECAM (1:250) was incubated at 4° C. overnight. […] Vessel density (average of three fields) was determined by IPLab software. […]

[6] = Water solubility of peptides; format: physicochemical; conditions: high concentrations, read-out: concentration at which not water soluble
Procedure: Peptides were approximately 1/7th-1/8th the size of full length endostatin. Three cysteines, 33,165,173, were replaced by alanines (underlined in Table 1), and cysteinel35 was omitted, to prevent the formation of disulfide bonds. Two additional lysines were added at the C-terminal of hP8 to increase its solubility (double underlined). Most peptides were water soluble, except for hP2 at high concentrations (>2.5 mg/ml). Also, all peptides were approximately 70% pure. However, no difference in tumor inhibition was observed when peptides of more than 95% purity were used.

Molecule: ATAQDFQPVLHLVALNTPLSGGMRGIR [mP1-H1/3A]
anti-tumor effect on LLC (LLC tumors [1]; 2.8 mg/kg/day): no effect; also recorded: essentially not affected

Molecule: GSEGPLKPGARIFSFDGKDVLRHPT [hP5]
inhibition of BxPC-3 tumor [2]: 29%

Molecule: GSQGQVQPGARIFSFDGRDVLRHPA [mP5]
anti-tumor effect on LLC (LLC tumors [1]): No or insignificant activity

Molecule: HPAWPQKSVWHGSDPSGRRLMESY [mP6]
anti-tumor effect on LLC (LLC tumors [1]): No or insignificant activity

Molecule: HPTWPQKSVWHGSDPNGRRLTESY [hP6]
concentration at which VEGF-induced EC migration was inhibited [3]: 100 ng/mL and 200 ng/mL | inhibition of EC migration ([3]; concentrations lower than 100 ng/ml): no inhibition | inhibition of EC migration ([3]; several doses): inhibited EC migration but at higher concentrations than hPl

Molecule: HSHRDFQPVLHLVALNSPLSGGMRG [hP1]
concentration at which VEGF-induced EC migration was inhibited [3]: 25 ng/mL | inhibition of EC migration ([3]; at 500 ng/ml): no inhibition | inhibition of EC migration ([3]; several doses): more potent in inhibiting EC migration than full-length endostatin | inhibition of BxPC-3 tumor [2]: 39%

Molecule: HTHQDFQPVLHLVAL [mP1-15]
anti-tumor effect on LLC (LLC tumors [1]): inhibit tumor volume

Molecule: HTHQDFQPVLHLVALNTPLS [mP1-20]
anti-tumor effect on LLC (LLC tumors [1]): inhibit tumor volume

Molecule: HTHQDFQPVLHLVALNTPLSGGMRGIR [mP1]
inhibition of LLC tumor formation (LLC tumors [4]): inhibited LLC tumor formation less than at 2.8 mg/kg/d | inhibition of LLC tumor (LLC tumors [1]; 2.8 mg/kg/day): 44% and 42%

Molecule: MRGIRGA DFQAFQQARA VGLSGTFR (MRGIRGADFQAFQQARAVGLSGTFR) [mP2]
inhibition of LLC tumor formation (LLC tumors [4]): could inhibit LLC tumor formation as well as mP1 at 2.8 mg/kg/d | anti-tumor effect on LLC (LLC tumors [1]): No or insignificant activity | effect on vessel density (CD31) [5]: no effect

solubility [6]: > 2.5 mg/mL
Molecule: MRGIRGADFQAFQQARAVGLAGTFR [hP2]

Molecule: TFRAFLSSRLQDLYSIVRRADRAAV [hP3]
anti-tumor effect on BxPC-3 ([2]; 28 days): failed to inhibit tumor growth

B1: human endostatin (EntreMed): recombinant human endostatin, gift from EntreMed Corporation (protein, UniProt P39060 1572-1754, looked up)
Endostatin: HSHRDFQPVLHLVALNSPLSGGMRGIRGADFQCFQQARAVGLAGTFRAFLSSRLQDLYSIVRRADRAAVPIVNLKDELLFPSWEALFSGSEGPLKPGARIFSFDGKDVLRHPTWPQKSVWHGSDPNGRRLTESYCETWRTEAPSATGQASSLLGGRLLGQSAASCHHAYIVLCIENSFMTASK
modifications: Endostatin
notes: recombinant human endostatin, gift from EntreMed Corporation
concentration at which VEGF-induced EC migration was inhibited [3]: 200 ng/mL | concentration of best (slightly better) inhibition of EC migration ([3]; U-shaped response): 200 ng/mL | inhibition of EC migration ([3]; at 100 ng/ml): not at 100 ng/ml
